1 molecule from patent US9352049B2, “Ligand-therapeutic agent conjugates, silicon-based linkers, and methods for making and using them” (Albany Molecular Research, Inc., priority 2013, dated 2016) can be followed below.

Each structure is given as a SMILES string.

Data set [1] is described as follows: Cleavage study of silyl conjugates at pH 4.5 (1:1 THF:0.05 M acetate buffer, 37° C., HPLC). The class given is physicochemical. Particulars: HPLC over 24 hours. Here is the method:
(§1) To study the release properties of the silyl conjugates, the conjugates were subject to hydrolysis conditions at both pH 7.4 and pH 4.5 to simulate blood and endosomes/lysosome environments, respectively.
The benzyl ester intermediates from Example 11 (step A), Example 12, Example 13, Example 14 (step A), and Example 15 were each dissolved in a 1:1 mixture of THF:0.05 M acetate buffer (pH 4.5) and heated to 37° C. with stirring. The mixture was analyzed with HPLC at T=1, 2, 3, 4, 5, 7 and 24 hours via Method B (see General Procedures in Example 1). Aliquots were quenched in a 1:1 acetonitrile:triethylamine solvent mixture to halt the hydrolysis reaction and allowed to stand up to 48 hours before HPLC analysis.

Data set [2] in a line: Cleavage study of silyl conjugates at pH 7.4 (THF:0.01 M PBS buffer, 37° C.). The class given is physicochemical. Particulars: pH 7.4, 37° C., after 24 hours. Here is the method: as §1
Example 12 and Example 15 were dissolved in THF:0.01 M PBS buffer (pH 7.4) and heated to 37° C. with stirring for over 20 hours. […] Additionally, Example 11 was trapped with methyl-3-mercaptopropionate to approximate a bioconjugate.

In the case of `CC[C@]1(O)CC2CN(CCc3c([nH]c4ccccc34)[C@@](C(=O)OC)(c3cc4c(cc3OC)N(C)[C@H]3[C@@](O)(C(=O)OC)[C@H](O[Si]5(CCCCC(=O)NCCOCCN6C(=O)CC(SCCC(=O)OC)C6=O)CCCCC5)[C@]5(CC)C=CCN6CC[C@]43[C@@H]65)C2)C1` (stereo partly drawn) [Example 19, (3aR,3a^1R,4R,5S,10bR)-methyl 3a-ethyl-9-((5S,7R,9S)-5-ethyl-5-hydroxy-9-(methoxycarbonyl)-2,4,5,6,7,8,9,10-octahydro-1H-3,7-methano[1]azacycloundecino[5,4-b]indol-9-yl)-5-hydroxy-8-methoxy-4-((1-(5-((2-(2-(3-((3-methoxy-3-oxopropyl)thio)-2,5-dioxopyrrolidin-1-yl)ethoxy)ethyl)amino)-5-oxopentyl)silinan-1-yl)oxy)-6-methyl-3a,3a^1,4,5,5a,6,11,12-octahydro-1H-indolizino[8,1-cd]carbazole-5-carboxylate], the “hydrolysis (release of desilylated parent vinca) in acidic media” value in data set [1] was “undergo parent vinca release at a rate comparable to the corresponding benzyl ester from Example 11 (step A)”. Further, in data set [2], the “desilylation at pH 7.4” value is recorded as “no desilylation was observed”.
